Laboratory results reported in patent EP4282435A1, “FORMULATIONS OF ACTIVE PHARMACEUTICAL INGREDIENTS AND EXCIPIENTS IN ICELLS VIA HYDROPHOBIC ION PAIRING” (Danmarks Tekniske Universitet, priority 2022, dated 2023).
Where two headings read alike, the source gives them in different places. Blank lines part the entries; values can stand above or below the compound they belong to.

Columns and labels:
[1] = HIP complexation efficacy of clindamycin (UHPLC of organic phase); format: physicochemical; settings: percentage of clindamycin complexed with the named co-ion, 1:1 charge ratio
Protocol: HIP complexation via Bligh-Dyer method: […] Moreover, chloroform and methanol were mixed before the addition of the aqueous clindamycin solution. […] The dried complex was re-suspended in methanol and analyzed by UHPLC to determine the amount of clindamycin. HIP complexation via modified Bligh-Dyer method: […] Next, 4 mL of chloroform were added and the resulting monophase was shaken at 400 rpm at room temperature for 30 min. 4 mL of chloroform followed by 4 mL of water were added to form a biphasic system. Isolation and analysis of the dried complex was done as described beforehand for the Bligh-Dyer method. UHPLC method: Samples were analyzed on a Shimadzu Nexera-X with a PDA detector. Samples were injected (5 μL) onto a Waters Terra XBridge BEH C8 column (2.5 μm, 4.6x75mm, temperature 25 °C) at a flow rate of 1 mL/min.

[2] = Source text: The chloroform phase was isolated, transferred to a new vial and subsequently chloroform was dried under a gentle flow of nitrogen.
[3] = Effect of co-ions on surface tension of ICell (visual appearance of injected depots); format: physicochemical; settings: co-ion alone (2 mM or 10 mM, no ICG) in SuBen:GTH:DMSO or SuBen:GTO:EtOH ICell, in PBS, 7 days at 37°C
Protocol: ICell formulation: A SuBen:GTH:DMSO (60:20:20), SuBen:GTH:DMSO (60:20:15) and a SuBen:GTO:EtOH (60:25:10) ICell were prepared as described in example 4. Effect on surface tension without ICG: TOAB was dissolved in DMSO and EtOH to produce solutions with a concentration of […]. CTAB was dissolved in EtOH to produce solutions with a concentration of […]. 0.03 g of each co-ion solution were individually added to 0.57 g of either a SuBen:GTH:DMSO (60:20:15) or a SuBen:GTO:EtOH (60:25:10) ICell. Thus, the final co-ion concentration in each ICell was 2mM or 10 mM. 50 µL of the previously prepared ICells were injected in glass vials containing 2 mL PBS. The vials were incubated at 37°C during 7 days and the visual appearance of the injected depots was evaluated.
(§1) Chloroform was dried under a gentle flow of nitrogen.
Effect on surface tension with ICG: SuBen:GTH:DMSO (60:20:20) ICell was proportionally added to the previously isolated ICG HIP complexes to obtain formulations with a final ICG concentration of either 0.1 or 2.5 mg/g as described in Table 4. 50 µL of these ICells were injected in glass vials containing 2 mL PBS. The vials were incubated at 37°C during 3 days and the visual appearance of the injected depots was evaluated.

[4] = Solubility of ICG HIP complexes in ICell (visual)
Protocol: (§2) For each co-ion, the chloroform phase was isolated and transferred to new glass vials. Chloroform was dried under a gentle flow of nitrogen.
(§3) 1 g of ICell was added to each vial containing the previously isolated ICG HIP complexes. In addition, 1 g of ICell was added to a vial containing 2.5 mg of native ICG.

[5] = Stability of ICG HIP complexes in ICell (HPLC); format: physicochemical; settings: ICG complexed with the named co-ion in SuBen:GTO:EtOH (60:25:15) ICell, 7 weeks in the dark at room temperature, percentage AUC of ICG at 280 nm
Protocol: as §2, §3
Stability study: After preparation, ICells were stored at room temperature and protected from light. After 7 weeks, approximately 25 µL of each formulation were taken and dissolved in 500 µL of acetonitrile. The samples were then analyzed by HPLC. HPLC analysis: Samples were analyzed on a Shimadzu Nexera-X HPLC. Samples were injected (5 µL) onto a Waters Terra XBridge BEH C18 column (2.5 µm, 4.6x75mm, temperature 25 °C) at a flow rate of 1 mL/min. The solvent system consisted of mobile phase A (5% MeCN, 0.1% TFA in water) and mobile phase B (0.1% TFA in MeCN). The gradient was 0% B for 1 min, 0 to 100% B in 5 min, 100% B for 4 min, 100% B to 0% B in 0.5 min, 0% B for 1 min. UV detection at 280 nm was used to measure the AUC of ICG and its related degradation products.

[6] = HIP complexation of ICG by method 3 (Bligh-Dyer), judged by colour of the phases; format: physicochemical; settings: co-ion:ICG 1:1 molar ratio
Protocol: HIP method 3 (Bligh-Dyer method): ICG (5 mg/mL) was dissolved in a 0.01 M HCI solution. Benethamine, dodecylamine, CTAB and tetraethyl ammonium bromide were used as co-ions. Each co-ion was dissolved in methanol in a 1:1 molar ratio to ICG. In an 8-mL glass vial, 1 mL of chloroform, 2 mL of co-ion solution (methanol), and 1 mL of ICG solution (water) were added in that order (methanol without co-ions was used as a control). The vials was gently shaken (i.e., slowly turned over 2-3 times) and incubated for 45 min at room temperature in the dark. Then 1 mL of water was added followed by 1 mL of chloroform. The vial was gently shaken again and incubated for 45 min at room temperature in the dark. The resulting HIP complex is present in the lower organic phase.
DB36 and ICG are negatively charged molecules, which are very soluble in water, but not in organic solvents such as chloroform. All the used co-ions have a positive charge and they could form hydrophobic ion pairing (HIP) complexes with either DB36 or ICG. When solubilized, DB36 and ICG form dark blue or green solutions, respectively. Thus, successful HIP complexation was assessed by either observing precipitates (for method 1) or a change in coloration in the chloroform phase (for methods 2 and 3). […]

[7] = HIP complexation of SIINFEKL with SDS (HPLC of supernatant); format: physicochemical
Protocol: (1.5 mg/mL) was dissolved in 0.01 M HCI. […] The […] and co-ion solution were mixed in equal volumes, followed by shaking and centrifugation steps as described in method 1 of example 2. The supernatant was removed the content of […] was evaluated by HPLC.
HPLC method: Samples were analyzed on a Shimadzu Nexera-X with PDA. Samples were injected (40 µL) onto a Waters Terra XBridge BEH C8 column (2.5 µm, 4.6x150mm, temperature 25 °C) at a flow rate of 1 mL/min. The solvent system consisted of mobile phase A (5% MeCN, 0.1% TFA in water) and mobile phase B (0.1% TFA in MeCN). The gradient was 0% B for 1.5 min, 0 to 100% B in 7 min, 100% B for 1.5 min, 100% B to 0% B in 0.5 min, 0% B for 1.5 min. […] was quantified by UV at 220 nm.

[8] = Solubility and stability of ICG HIP complex in different solvents (HPLC); format: physicochemical; settings: native non-complexed ICG in water, 5 days at 25°C in the dark, HPLC 280 nm
Protocol: as §1
HPLC analysis: Samples were analyzed on a Shimadzu Nexera-X HPLC. […] The solvent system consisted of mobile phase A (5% MeCN, 0.1% TFA in water) and mobile phase B (0.1% TFA in MeCN). The gradient was 0% B for 1 min, 0 to 100% B in 5 min, 100% B for 4 min, 100% B to 0% B in 0.5 min, 0% B for 1 min. UV detection at 280 nm was used to measure the AUC of ICG and its related degradation products.

S. aureus strain S54F9 = test: Microbiological assay, Disc Diffusion Assay; format: cell-based, Staphylococcus aureus; settings: 24 hours at 37 °C
Protocol: Then, 3 wells were carved out with the use of the broad side of an autoclaved 1 ml pipette tip.
This setup was repeated for three experimental replicates. Each plate was incubated for 24 hours at 37 °C, before inspection.
Then, 3 wells were carved out with the use of the broad side of an autoclaved 1 ml pipette tip. In one well, 0.5 mg linoleic acid was injected as 90 µl 0.22 µm-sterile-filtered dimethyl sulfoxide. In a second well, 90 µl autoclaved phosphate-buffered saline with 0.5 mg vancomycin hydrochloride was injected. […] The plate was incubated for 24 hours at 37 °C, before inspection.

[9] = remark: listed apart in the source
Protocol: After removing the supernatant, the complex was dissolved in methanol, transferred to a new glass vial and the solvent was dried under a gentle nitrogen flow. […] The chloroform phase was isolated, transferred to a new vial and subsequently chloroform was dried under a gentle flow of nitrogen.

[10] = HIP complexation of gentamicin (HPLC-ELSD of supernatant or aqueous phase); format: physicochemical; settings: Bligh-Dyer method, 1:1 charge ratio; gentamicin not detected in aqueous phase
Protocol: HIP complexation via organic-solvent free method: […] A white precipitate was obtained, which corresponded to the HIP complex. The supernatant was removed and its gentamicin content was evaluated by HPLC. […] A sample of the aqueous phase was taken to evaluate its gentamicin content by HPLC. HPLC method: Samples were analyzed on a Shimadzu Nexera-i with an evaporative light scattering detector (ELSD). Samples were injected (5 µL) onto a Waters Terra XBridge BEH C8 column (5 µm, 4.6x150mm, temperature 25 °C) at a flow rate of 1 mL/min.

[11] = In vitro release of clindamycin-HIP complexes from ICell into PBS; format: in vitro ADME; settings: clindamycin or its HIP complex with the named co-ion, SuBen:GTH:EtOH (60:20:20) ICell, 20 mg/g, PBS 37°C, after 8 days, mean (n=2)
Protocol: ICell formulation: […] […] In vitro release: 50 μL of each ICell were individually injected in 8-mL glass vials containing 2 mL PBS, for which the exact amount of injected ICell was weighed. The vials were incubated at 37 °C and at each sampling point 1 mL of PBS was taken. 1 mL of fresh buffer was added immediately to the vial to replace the taken sample. The samples were then analyzed by HPLC and the concentration of drug in the release media was calculated. UHPLC method: HPLC analyses were done using a Shimadzu Nexera-X UHPLC instrument with a PDA detector. The samples were injected (40 μL) onto a Waters Terra BEH C8 column (2.5μm, 4.6x75mm, temperature 25°C) at a flow rate of 0.8 mL/min.

[12] = ICG or its HIP complex with the named co-ion in SuBen:GTO:EtOH (60:25:15) ICell, about 2.5 mg ICG per 1 g ICell, visual

Compound: CCCCCCC/C=C\C(=O)O [C2DA]
Complexation efficacy Bligh-Dyer method [1]: 80% | Complexation efficacy Modified Bligh-Dyer method [1]: 72% | solubility in ICell ([2]; clindamycin or its HIP complex with the named co-ion, SuBen:GTH:EtOH (60:20:20) ICell, clindamycin 20 mg/g, visual): easily solubilized

Compound: CCCCCCCCCCCCCCCC[N+](C)(C)C [CTAB]
visual appearance of injected ICell depots (surface tension) [3]: had flatten | solubility in ICell [4, 12]: easily solubilized | ICG % AUC [5]: 97.6% | ICG complexed [6]: ~100%

Compound: CCCCCCCCCCCCN [Dodecylamine]
solubility in ICell [4]: easily solubilized | ICG % AUC [5]: 95.3% | ICG complexed [6]: ~100%

Compound: CCCCC/C=C\C/C=C\CCCCCCCC(=O)O [Linoleic acid]
antimicrobial activity (clearance of S. aureus) (S. aureus strain S54F9; Example 24, wells: 0.5 mg linoleic acid in DMSO, 0.5 mg vancomycin hydrochloride, 45 µl HIP complex + 45 µl PBS): has an antimicrobial effect, but to an extent lesser than vancomycin | Complexation efficacy Bligh-Dyer method [1]: 64% | Complexation efficacy Modified Bligh-Dyer method [1]: 80% | solubility in ICell [2]: easily solubilized

Compound: CCCCCCCC/C=C\CCCCCCCC(=O)[O-].[Na+] [Sodium oleate]
Complexation efficacy Bligh-Dyer method [1]: 72% | Complexation efficacy Modified Bligh-Dyer method [1]: 72% | release of clindamycin from the ICell [11]: 96%

Compound: CC[N+](CC)(CC)CC.[Br-] [Tetraethyl ammonium bromide]
ICG % AUC [5]: 96.3%

Compound: CC(=O)NC[C@H]1CN(c2ccc(N3CCOCC3)c(F)c2)C(=O)O1 [linezolid, Linezolid]
antimicrobial activity (clearing zone) after release from ICell (S. aureus strain S54F9; Example 23, 50 µl ICell per well (gentamicin-docusate 20 mg/g, Linezolid 15 mg/g in SuBen:GTO:EtOH (60:25:15))): clearing zone

The remaining lines, values ahead:

solubility in methanol [7]: soluble
Compound: CC[C@H](C)[C@H](NC(=O)[C@@H](NC(=O)[C@@H](N)CO)[C@@H](C)CC)C(=O)N[C@@H](CC(N)=O)C(=O)N[C@@H](Cc1ccccc1)C(=O)N[C@@H](CCC(=O)O)C(=O)N[C@@H](CCCCN)C(=O)N[C@@H](CC(C)C)C(=O)O [HIP complex of SIINFEKL with SDS]

stability [8]: no longer visible in the chromatogram | solubility in ICell [4, 12]: not soluble
Compound: CC1(C)C(/C=C/C=C/C=C/C=C2\N(CCCCS(=O)(=O)O)c3ccc4ccccc4c3C2(C)C)=[N+](CCCCS(=O)(=O)[O-])c2ccc3ccccc3c21 [ICG, indocyanine green, reference compound]

solubility in methanol [7]: insoluble
Compound: CC[C@H](C)[C@H](NC(=O)[C@@H](NC(=O)[C@@H](N)CO)[C@@H](C)CC)C(=O)N[C@@H](CC(N)=O)C(=O)N[C@@H](Cc1ccccc1)C(=O)N[C@@H](CCC(=O)O)C(=O)N[C@@H](CCCCN)C(=O)N[C@@H](CC(C)C)C(=O)O [SIINFEKL] [reference compound]

solubility in ICell [9]: easily solubilized | gentamicin complexed [10]: 100%
Compound: CCCCC(CC)COC(=O)CC(C(=O)OCC(CC)CCCC)S(=O)(=O)O (stereo not shown) [Sodium docusate]
